Legend:
B16-F1 melanomas = assay: B16-F1 melanoma, adoptive T cell therapy with anti-platelet agents; format: in vivo, mouse; conditions: for anti-tumor effect: aspirin and clopidogrel added to Cy, no T cells; for antigen-specific T cells in blood, ILNs and spleens: aspirin and clopidogrel concurrent with ACT; for efficacy and relapse-free survival: aspirin and clopidogrel plus Cy and adoptive Pmel T cell transfer
[1] = system: platinum resistant advanced NSCLC; assay: POPLAR database analysis by LRRC32 (GARP) expression; format: in vivo, human; conditions: for OS or disease control rate, Atezolizumab vs docetaxel: patients with high GARP expression
Description: Mechanistically, PD-1 blockade works primarily by targeting the progenitor exhausted population of CD8^+ T cells in the TME (TCF-1 expressing, SlamF6 expressing, PD-1 intermediate to low expressing). These cells deliver the proliferative burst following treatment resulting in increased differentiation to the terminal exhausted population, which is responsible for tumor clearance. […] Thus, we hypothesized GARP expression can contribute to PD-1/L1 ICB resistance. To address this hypothesis, we first mined the POPLAR database which compared PD-L1 blockade Atezolizumab with chemotherapy (i.e., docetaxel) for the platinum resistant advanced NSCLC. In this multi-center international phase II trial, bulk RNAseq data from pre-treatment tumors were available for 86 patients enrolled primarily in the US sites. We divided these patients into GARP high and low expression group with median expression level of LRRC32 transcript as the cutoff. […] To further address this hypothesis, we tested the combination therapy of anti-GARP antibody huPIIO-1 and PD-1 blockade in murine Lewis Lung Carcinoma (LLC) and CMT-167 lung cancer models, both of which are considered immunologically cold tumors with resistance to single agent PD-1 ICB. To do so, the human GARP KI mice were challenged with LCC followed by treatment with 200 μg/mouse of Isotype, huPIIO-1, anti-PD-1 antibody, or a combination of huPIIO-1 and PD-1 every 3 days starting on day 8 post tumor challenge for a total of 4 injections.

Baculovirus = Baculovirus (BV) ELISA for non-specific binding
Description: Baculovirus (BV) ELISA was employed as a preliminary assay to evaluate antibody's potential nonspecific binding risk.
In Baculovirus (BV) ELISA, the inventor used Rituxan Mab as reference. […] If a clone only has binding on BV, but not on 293 cells, it will be considered as having a low risk of non-specific binding.
Methods—Baculovirus ELISA. Plates are coated with 50 μl of 1:500 diluted Baculovirus sample in PBS in each well. Plates are kept at 4° C. for overnight. The plates are washed with 300 μL of wash buffer ×3 and 200 μl blocking buffer (1% BSA) is added at RT for 60 min. Plates are washed with 300 μl of wash buffer ×3 and 100 μl of diluted Abs are added at different concentrations/well, followed by RT incubation for 1 hr. Plates are washed with 300 μl of wash buffer ×6 and 100 μl of 1:5000 HRP conjugated second Ab in PBS is added followed by RT incubation for 1 hr. The plates are washed with 300 μl of wash buffer ×6. Developing buffer is added and the plate is read.

[2] = system: MB-49 Bladder Cancer cells; assay: MB-49 bladder cancer model in hLRRC32KI mice; conditions: FTY720 2 mg/kg every two days, 6 doses, with PIIO-1
Description: A. 1×10^5 MB-49 Bladder Cancer cells were injected s.c. on the right flank of hLRRC32KI mice. […] Representative tumor curve. B. 1×10^5 MB-49 Bladder cancer cells were injected s.c. on the right flank of hLRRC32KI mice. […] Tumors were collected and perform flow cytometry on day 10. Frequency of CD8+ T cells as a proportion of live CD45+ lymphocytes (left). 1×10^5 MB-49 Bladder Cancer cells were injected s.c. on the right flank of hLRRC32KI mice. […] Tumors were collected and perform flow cytometry on day 22. […] C. Frequency of CD25+Foxp3^+ Tregs in CD4+ tumor-infiltrating T cells (left). […] UMAP dimension reduction of tumor-infiltrating CD8+ T cells from B after staining with 33 markers and spectral flow cytometry analysis. Shown is the data gated on live CD45+CD3+CD8+ T cells, subsampled on 5000 cells per sample Unsupervised clustering analysis was done using FlowSOM algorithm with an elbow method approach for cluster number determination. E. Heatmap of D showing expression levels of indicated markers by each cluster. […] Cluster differences were measured by two-tailed Student's t test.
A. Experimental scheme. […] Overall survival is analyzed by log-rank (Mantel-Cox) test. […]
A. 1×10^5 MB-49 Bladder Cancer cells were injected s.c. in the right flank of hLRRC32KI mice. […] B. Quantification of panel A. 1×10^5 MB-49 Bladder Cancer cells were injected s.c. on the right flank of hLRRC32KI mice. […]

[3] = patients with low GARP expression

CC(=O)Oc1ccccc1C(=O)O [aspirin]
anti-tumor effect (B16-F1 melanomas): no anti-tumor effects
antigen-specific T cells in blood, ILNs and spleens (B16-F1 melanomas): sustained at higher numbers
efficacy and relapse-free survival (B16-F1 melanomas): highly effective against B16-F1 with relapse-free survival of most mice beyond 3 months

Atezolizumab: PD-L1 blockade
OS or disease control rate, Atezolizumab vs docetaxel [1]: did not demonstrate any difference
disease control rate [1, 3]: 68.2%
overall survival HR, Atezolizumab vs docetaxel ([1]; patients with low GARP expression, p=0.086): 1.89

COC(=O)[C@H](c1ccccc1Cl)N1CCc2sccc2C1 [clopidogrel]
anti-tumor effect (B16-F1 melanomas): no anti-tumor effects
antigen-specific T cells in blood, ILNs and spleens (B16-F1 melanomas): sustained at higher numbers
efficacy and relapse-free survival (B16-F1 melanomas): highly effective against B16-F1 with relapse-free survival of most mice beyond 3 months

CC(=O)O[C@@]12CO[C@@H]1C[C@H](O)[C@@]1(C)C(=O)[C@H](O)C3=C(C)[C@@H](OC(=O)[C@H](O)[C@@H](NC(=O)OC(C)(C)C)c4ccccc4)C[C@@](O)([C@@H](OC(=O)c4ccccc4)[C@H]21)C3(C)C [docetaxel]
OS or disease control rate, Atezolizumab vs docetaxel [1]: did not demonstrate any difference
disease control rate [1, 3]: 9.5%

O=P1(N(CCCl)CCCl)NCCCO1 (stereo not drawn) [Cy, cyclophosphamide]
tumor control (B16-F1 melanomas; Cy alone): failed to control tumors

Rituxan: Rituxan Mab used as reference in BV ELISA [reference compound]
BV ELISA with purified IgG, raw BV binding data (Baculovirus; Ab. Conc. 0.15625 ug/ml): 12.1
BV ELISA with purified IgG, raw BV binding data (Baculovirus; Ab. Conc. 0.3125 ug/ml): 13.7
BV ELISA with purified IgG, raw BV binding data (Baculovirus; Ab. Conc. 0.625 ug/ml): 13.7
BV ELISA with purified IgG, raw BV binding data (Baculovirus; Ab. Conc. 1.25 ug/ml): 13.0
BV ELISA with purified IgG, raw BV binding data (Baculovirus; Ab. Conc. 2.5 ug/ml): 17.0
BV ELISA with purified IgG, raw BV binding data (Baculovirus; Ab. Conc. 5 ug/ml): 22.7
BV ELISA with purified IgG, raw BV binding data (Baculovirus; Ab. Conc. 10 ug/ml): 66.0
BV ELISA with purified IgG, raw BV binding data (Baculovirus; Ab. Conc. 20 ug/ml): 98.8

CCCCCCCCc1ccc(CCC(N)(CO)CO)cc1 [FTY720]
effect of FTY720 on anti-tumor efficacy of PIIO-1 and T cell infiltration [2]: abrogated the anti-tumor efficacy of PIIO-1 and effectively blocked T cell infiltration

Reference: patent US20240425571A1, “GLYCOPROTEIN A REPETITIONS PREDOMINANT (GARP)-BINDING ANTIBODIES AND USES THEREOF” (OHIO STATE INNOVATION FOUNDATION, priority 2021, published 2024)
